Where two headings read alike, the source gives them in different places.
Key:
[1] = system: A2780 cells; test: Viability assay in A2780 (Cell Titer Glo); assay type: cell-based, human; settings: Homo sapiens
How it was run: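 A2780 cells (1,000/well, DMEM + 10% FBS) were exposed to 3-fold serial dilutions of compound for 72 hrs at 37° C, 5% CO2. Viable cells were read by Cell Titer Glo luminescence, in duplicate, and EC50 values were derived from the curves.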

[2] = target: PI3 K Alpha (Homo sapiens, UniProt P42336); test: PI3 kinase phosphorylation assays (homogenous solution phase, one step solid phase, ATP depletion/KinaseGlo); assay type: biochemical
[3] = system: pSer473-Akt in A2780 cells; test: pSer473 Akt assay to monitor PI3K pathway in A2780 cells (MSD); assay type: cell-based; settings: Homo sapiens
Protocol: In this method, an assay for measuring the PI3K-mediated pSer^473-Akt status after treatment with representative inhibitor compounds of the preferred embodiments is described.
A2780 cells were cultured in DMEM supplemented with 10% FBS, L-glutamine, sodium pyruvate, and antibiotics. Cells were plated in the same medium at a density of 15,000 cells per well into 96 well tissue culture plates, with outside wells vacant, and allowed to adhere overnight.
Test compounds supplied in DMSO were diluted further into DMSO at 500 times the desired final concentrations before dilution into culture media to 2 times the final concentrations. Equal volumes of 2× compounds in media were added to the cells in 96 well plates and incubated at 37° C. for one hour. The media and compounds were then removed, the plates chilled and cells lysed in a lysis buffer (150 mM NaCl, 20 mM Tris pH 7.5, 1 mM EDTA, 1 mM EGTA, 1% Triton X-100) supplemented with phosphatase and protease inhibitors. After thorough mixing, lysates were transferred to both pSer473Akt and total Akt assay plates from Meso Scale Discovery (MSD), and incubated overnight with shaking at 4° C. The plates were washed with 1×MSD wash buffer and the captured analytes detected with secondary antibodies. After incubation with the secondary antibody at room temperature for 1-2 hours, the plates were washed again and 1.5× concentration of Read Buffer T (MSD) was added to the wells.
The assays were read on a SECTOR Imager 6000 instrument (Meso Scale Discovery). Ratios of the signal from pSer473Akt and total Akt assays were used to correct for any variability and the percent inhibition of pSer473Akt from the total signal seen in cells treated with compound versus DMSO alone was calculated and used to determine EC50 values for each compound as shown in Tables 1 and 2 in the column labeled “A2780 pAKT473 EC50”.

[4] = A2780 cells, read-out: A2780 Cell prolif. EC50
[5] = A2780 cells, read-out: A2780 pAKT 473 EC50
[6] = A2780 cells, 72 hrs, read-out: A2780 Cell prolif. EC50
[7] = ATP depletion assay, read-out: PI3 K Alpha IC50
[8] = 1 h, A2780 cells, one hour incubation, read-out: A2780 pAKT473 EC50
[9] = A2780, read-out: A2780 Cell prolif. EC50
[10] = A2780, read-out: A2780 pAKT 473 EC50

Chain of PI3 K Alpha (P42336 whole entry): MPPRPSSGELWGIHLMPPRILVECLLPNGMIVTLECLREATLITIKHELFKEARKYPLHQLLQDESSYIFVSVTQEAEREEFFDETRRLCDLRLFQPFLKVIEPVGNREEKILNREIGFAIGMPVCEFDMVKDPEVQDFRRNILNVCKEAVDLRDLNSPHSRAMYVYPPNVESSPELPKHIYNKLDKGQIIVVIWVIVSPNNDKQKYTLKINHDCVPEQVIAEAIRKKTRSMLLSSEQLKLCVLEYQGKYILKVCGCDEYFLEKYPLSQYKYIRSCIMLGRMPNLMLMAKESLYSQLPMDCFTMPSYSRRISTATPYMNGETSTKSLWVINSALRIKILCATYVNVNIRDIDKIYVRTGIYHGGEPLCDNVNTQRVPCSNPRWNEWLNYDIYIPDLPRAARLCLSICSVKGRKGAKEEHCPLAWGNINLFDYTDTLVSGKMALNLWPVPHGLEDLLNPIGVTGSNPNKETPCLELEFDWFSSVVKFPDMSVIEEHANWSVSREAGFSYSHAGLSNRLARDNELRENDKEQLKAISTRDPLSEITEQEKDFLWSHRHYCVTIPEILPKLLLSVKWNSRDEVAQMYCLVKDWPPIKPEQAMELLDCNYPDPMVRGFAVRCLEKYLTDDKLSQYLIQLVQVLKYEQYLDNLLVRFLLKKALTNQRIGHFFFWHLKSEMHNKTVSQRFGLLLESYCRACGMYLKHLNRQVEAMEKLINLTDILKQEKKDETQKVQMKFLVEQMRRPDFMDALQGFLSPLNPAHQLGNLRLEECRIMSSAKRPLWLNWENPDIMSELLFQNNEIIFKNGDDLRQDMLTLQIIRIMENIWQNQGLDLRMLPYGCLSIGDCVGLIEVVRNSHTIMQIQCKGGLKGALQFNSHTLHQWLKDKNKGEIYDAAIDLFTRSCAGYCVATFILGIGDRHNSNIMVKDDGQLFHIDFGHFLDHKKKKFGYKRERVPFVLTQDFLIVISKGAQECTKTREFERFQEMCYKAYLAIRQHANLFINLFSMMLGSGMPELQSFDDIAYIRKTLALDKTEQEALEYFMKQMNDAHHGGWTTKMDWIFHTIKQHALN
Chain of PI3 K Alpha (P27986 whole entry partner): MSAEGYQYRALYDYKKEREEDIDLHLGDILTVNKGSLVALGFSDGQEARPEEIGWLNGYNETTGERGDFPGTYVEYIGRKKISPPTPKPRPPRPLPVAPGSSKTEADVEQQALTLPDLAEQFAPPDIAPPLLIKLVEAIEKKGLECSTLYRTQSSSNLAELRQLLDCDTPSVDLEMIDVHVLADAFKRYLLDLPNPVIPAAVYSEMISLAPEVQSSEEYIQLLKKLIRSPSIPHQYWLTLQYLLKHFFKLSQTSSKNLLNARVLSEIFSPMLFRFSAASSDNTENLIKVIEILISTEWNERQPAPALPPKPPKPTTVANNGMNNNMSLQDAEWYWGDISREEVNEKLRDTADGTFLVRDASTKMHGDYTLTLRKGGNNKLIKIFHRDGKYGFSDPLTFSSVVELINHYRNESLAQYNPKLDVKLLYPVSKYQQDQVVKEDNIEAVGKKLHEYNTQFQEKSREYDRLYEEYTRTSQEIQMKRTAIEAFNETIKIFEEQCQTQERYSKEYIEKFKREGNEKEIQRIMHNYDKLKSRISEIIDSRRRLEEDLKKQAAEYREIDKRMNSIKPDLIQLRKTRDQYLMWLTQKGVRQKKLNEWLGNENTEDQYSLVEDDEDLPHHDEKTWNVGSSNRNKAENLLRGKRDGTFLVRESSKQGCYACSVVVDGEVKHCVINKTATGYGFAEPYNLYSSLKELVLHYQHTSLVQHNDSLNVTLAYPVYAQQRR

Compound Nc1ncc(-c2ccc3nc(NC(=O)c4cccnc4)cn3c2)cc1C(F)(F)F [Example 123, N-(6-(6-amino-5-(trifluoromethyl)pyridin-3-yl)imidazo[1,2-a]pyridin-2-yl)nicotinamide] has an EC50 [1, 4] of less than 10000 nM, an IC50 ([2]; read-out: PI3K Alpha IC50) of less than 1000 nM and an EC50 [3, 5] of less than 1000 nM.
For Nc1ncc(-c2ccc3nc(NC(=O)CCCN4CCOCC4)sc3c2)cn1 [Example 2-11, N-[6-(2-Amino-pyrimidin-5-yl)-benzothiazol-2-yl]-4-morpholin-4-yl-butyramide], the EC50 [1, 6] was less than 10000 nM, the IC50 [2, 7] was less than 1000 nM and the EC50 [3, 8] was less than 1000 nM.
CC(=O)Nc1cn2nc(-c3cnc(N)c(-c4ccc(C(F)(F)F)cc4)c3)ccc2n1 [Example 107, N-(6-(6-amino-5-(4-(trifluoromethyl)phenyl)pyridin-3-yl)imidazo[1,2-b]pyridazin-2-yl)acetamide] showed an EC50 [1, 4] of less than 1000 nM, an IC50 ([2]; read-out: PI3K Alpha IC50) of less than 1000 nM and an EC50 [3, 5] of less than 1000 nM.
With CC(=O)Nc1cn2cc(-c3cnc(N)c(Oc4cccc(F)c4)n3)ccc2n1 [Example 65, N-(6-(5-amino-6-(3-fluorophenoxy)pyrazin-2-yl)imidazo[1,2-a]pyridin-2-yl)acetamide] the EC50 [1, 4] was less than 1000 nM, the IC50 ([2]; read-out: PI3K Alpha IC50) was less than 1000 nM and the EC50 [3, 5] was less than 1000 nM.
Compound CC(=O)Nc1cn2cc(-c3cnc(N)c(/C=N/NCC(F)(F)F)c3)ccc2n1 [Example 76, (E)-N-(6-(6-amino-5-((2-(2,2,2-trifluoroethyl) hydrazono)methyl)pyridin-3-yl)imidazo[1,2-a]pyridin-2-yl)acetamide] has an EC50 [1, 4] of less than 1000 nM, an IC50 ([2]; read-out: PI3K Alpha IC50) of less than 1000 nM and an EC50 [3, 5] of less than 1000 nM.
Compound CC(=O)Nc1nc2ccc(-c3cnc(N)c(C(F)(F)F)c3)cn2c1C#Cc1ccncc1 [Example 68, N-(6-(6-amino-5-(trifluoromethyl)pyridin-3-4-ylethynyl)imi-dazo[1,2-a]pyridin-2-yl)acetamide] has an EC50 [1, 9] of less than 1000 nM, an IC50 [2] of less than 1000 nM and an EC50 [3, 10] of less than 1000 nM.
For COCCCOc1nc(-c2ccc3nc(NC(C)=O)cn3c2)cnc1N [Example 73], the EC50 [1, 4] was less than 1000 nM, the IC50 ([2]; read-out: PI3K Alpha IC50) was less than 1000 nM and the EC50 [3, 5] was less than 1000 nM.
With CNC(=O)Nc1nc2ccc(-c3ccc(N)nc3)cc2s1 [Example 2-23, 1-[6-(6-Amino-pyridin-3-yl)-benzothiazol-2-yl]-3-methyl-urea] the EC50 [1, 6] was less than 10000 nM, the IC50 [2, 7] was less than 1000 nM and the EC50 [3, 8] was less than 1000 nM.
CC(=O)Nc1cn2cc(-c3cnc(N)c(OC4CN(C(=O)c5ccccc5)C4)n3)ccc2n1 [Example 128, N-(6-(5-amino-6-(1-benzoylazetidin-3-yloxy)pyrazin-2-yl)imidazo[1,2-a]pyridin-2-yl)acetamide] was tested, and the EC50 [1, 4] was less than 10000 nM, the IC50 ([2]; read-out: PI3K Alpha IC50) was less than 1000 nM and the EC50 [3, 5] was less than 1000 nM.
Work on CC(=O)Nc1cn2cc(-c3cnc(N)c(Oc4ccc(F)cc4)n3)ccc2n1 [Example 63, N-(6-(5-amino-6-(4-fluorophenoxy)pyrazin-2-yl)imidazo[1,2-a]pyridin-2-yl)acetamide] yielded an EC50 [1, 4] of less than 1000 nM, an IC50 ([2]; read-out: PI3K Alpha IC50) of less than 1000 nM and an EC50 [3, 5] of less than 1000 nM.
Nc1ccc(-c2ccc3nc(NC(=O)OCCN4CCOCC4)sc3c2)cn1 [Example 2-24, [6-(6-Amino-pyridin-3-yl)-benzothiazol-2-yl]-carbamic acid 2-morpholin-4-yl-ethyl ester] showed an EC50 [1, 6] of less than 25000 nM, an IC50 [2, 7] of less than 1000 nM and an EC50 [3, 8] of less than 10000 nM.
With CC(=O)Nc1cn2cc(-c3cnc(N)c(-c4ccccc4C(F)(F)F)c3)ccc2n1 [Example 120, N-(6-(6-amino-5-(2-(trifluoromethyl)phenyl)pyridin-3-yl)imidazo[1,2-a]pyridin-2-yl)acetamide] the EC50 [1, 4] was less than 10000 nM, the IC50 ([2]; read-out: PI3K Alpha IC50) was less than 1000 nM and the EC50 [3, 5] was less than 1000 nM.
Compound Cc1cc(C(=O)Nc2cn3cc(-c4cnc(N)c(C(F)(F)F)c4)ccc3n2)no1 [Example 94, N-(6-(6-amino-5-(trifluoromethyl)pyridin-3-yl)imidazo[1,2-a]pyridin-2-yl)-5-methylisoxazole-3-carboxamide] has an EC50 [1, 4] of less than 1000 nM, an IC50 ([2]; read-out: PI3K Alpha IC50) of less than 1000 nM and an EC50 [3, 5] of less than 1000 nM.
With CC(=O)Nc1cn2cc(-c3cnc(N)c(-c4ccccc4)n3)ccc2n1 [Example 113, N-(6-(5-amino-6-phenylpyrazin-2-yl)imidazo[1,2-a]pyridin-2-yl)acetamide] the EC50 [1, 4] was less than 10000 nM, the IC50 ([2]; read-out: PI3K Alpha IC50) was less than 1000 nM and the EC50 [3, 5] was less than 1000 nM.
CC(=O)Nc1cn2nc(-c3cnc(N)c(-c4ccccc4)c3)ccc2n1 [Example 84, N-(6-(6-amino-5-phenylpyridin-3-yl)imidazo[1,2-b]pyridazin-2-yl)acetamide] was tested, and the EC50 [1, 4] was less than 1000 nM, the IC50 ([2]; read-out: PI3K Alpha IC50) was less than 1000 nM and the EC50 [3, 5] was less than 1000 nM.
Work on CC(=O)Nc1cn2cc(-c3cnc(N)c(-c4ccc(N5CCOCC5)cc4)c3)ccc2n1 [Example 39, N-(6-(6-amino-5-(4-morpholino-phenyl)pyridin-3-yl)imidazo[1,2-a]pyridin-2-yl)acetamide] yielded an EC50 [1, 4] of less than 10000 nM, an IC50 ([2]; read-out: PI3K Alpha IC50) of less than 10000 nM and an EC50 [3, 5] of less than 10000 nM.
CC(=O)Nc1nc2c(F)cc(-c3cnc(N)c(C(F)(F)F)c3)cc2s1 [Example 2-31, N-[6-(6-Amino-5-trifluoromethyl-pyridin-3-yl)-4-fluoro-benzothiazol-2-yl]-acetamide] was tested, and the EC50 [1, 6] was less than 25000 nM, the IC50 [2, 7] was less than 1000 nM and the EC50 [3, 8] was less than 1000 nM.
With CC(=O)Nc1cn2nc(-c3cnc(N)c(-c4ccccc4OC(F)(F)F)c3)ccc2n1 [Example 90, N-(6-(6-amino-5-(2-(trifluoromethoxy)phenyl)pyridin-3-yl)imidazo[1,2-b]pyridazin-2-yl)acetamide] the EC50 [1, 4] was less than 1000 nM, the IC50 ([2]; read-out: PI3K Alpha IC50) was less than 1000 nM and the EC50 [3, 5] was less than 1000 nM.
Nc1ncc(-c2ccc3nc(NC(=O)CO[C@@H]4CCNC4)cn3n2)cc1C(F)(F)F [Example 69, (R)-N-(6-(6-amino-5-(trifluoromethyl)pyridin-3-yl)imidazo[1,2-b]pyridazin-2-yl)-2-(pyrrolidin-3-yloxy)acetamide] was tested, and the EC50 [1, 4] was less than 1000 nM, the IC50 ([2]; read-out: PI3K Alpha IC50) was less than 1000 nM and the EC50 [3, 5] was less than 1000 nM.
NCC(=O)Nc1cn2cc(-c3cnc(N)c(C(F)(F)F)c3)ccc2n1 [Example 215, 2-amino-N-(6-(6-amino-5-(trifluoromethyl)pyridin-3-yl)imidazo[1,2-a]pyridin-2-yl)acetamide] showed an EC50 [1, 4] of less than 10000 nM, an IC50 ([2]; read-out: PI3K Alpha IC50) of less than 1000 nM and an EC50 [3, 5] of less than 10000 nM.
Work on CC(=O)Nc1nc2ccc(-c3cnc(N)c(CN(C)C)c3)cc2s1 [Example 2-25, N-[6-(6-Amino-5-dimethylamino-methyl-pyridin-3-yl)-benzothiazol-2-yl]-acetamide] yielded an EC50 [1, 6] of less than 10000 nM, an IC50 [2, 7] of less than 1000 nM and an EC50 [3, 8] of less than 1000 nM.
Compound COc1cc(-c2ccc3nc(NC(C)=O)c(Br)n3c2)cnc1N [Example 8, N-[6-(6-Amino-5-methoxy-pyridin-3-yl)-3-bromo-imidazo[1,2-a]pyridin-2-yl]-acetamide] has an EC50 [1, 4] of less than 10000 nM, an IC50 ([2]; read-out: PI3K Alpha IC50) of less than 1000 nM and an EC50 [3, 5] of less than 1000 nM.
CC(=O)Nc1nc2ccc(-c3cnc(N)c(C(F)(F)F)c3)cn2c1C#Cc1ccccn1 [Example 241, N-(6-(6-amino-5-(trifluoromethyl)pyridin-3-yl)-3-(pyridin-2-ylethnyl)imi-dazo[1,2-a]pyridin-2-yl)acetamide] showed an EC50 [1, 9] of less than 10000 nM, an IC50 [2] of less than 1000 nM and an EC50 [3, 10] of less than 10000 nM.
CC(=O)Nc1nc2ccc(-c3cnc(N)c(C(F)(F)F)c3)cn2c1C#CCN1CCOCC1 [Example 213, N-(6-(6-amino-5-(trifluoromethyl)pyridin-3-yl)-3-(3-morpholino-prop-1-ynyl)imidazo[1,2-a]pyridin-2-yl)acetamide] showed an EC50 [1, 4] of less than 10000 nM, an IC50 ([2]; read-out: PI3K Alpha IC50) of less than 1000 nM and an EC50 [3, 5] of less than 10000 nM.

Reference: patent US20100075965A1, “PI3 KINASE INHIBITORS AND METHODS OF THEIR USE” (Novartis AG, priority 2006, published 2010)
